The source made the active and inactive calls.
Legend:
Vero = test: cells; format: functional; conditions: Chlorocebus sabaeus
[1] = biological target: FAD-linked sulfhydryl oxidase ALR (Homo sapiens, UniProt P55789); test: inhibitors of human ALR sulfhydryl oxidase, dose response, biochemical, H2O2 detection, luminescence, cherry-pick (AID 493248)
[2] = biological target: T1, Calpain-2 catalytic subunit (Sus scrofa, UniProt P43367); test: pig calpain II inhibitor potency, dose response, biochemical, fluorogenic peptide substrate (AID 1420); format: functional
T1 sequence (P43367 whole entry): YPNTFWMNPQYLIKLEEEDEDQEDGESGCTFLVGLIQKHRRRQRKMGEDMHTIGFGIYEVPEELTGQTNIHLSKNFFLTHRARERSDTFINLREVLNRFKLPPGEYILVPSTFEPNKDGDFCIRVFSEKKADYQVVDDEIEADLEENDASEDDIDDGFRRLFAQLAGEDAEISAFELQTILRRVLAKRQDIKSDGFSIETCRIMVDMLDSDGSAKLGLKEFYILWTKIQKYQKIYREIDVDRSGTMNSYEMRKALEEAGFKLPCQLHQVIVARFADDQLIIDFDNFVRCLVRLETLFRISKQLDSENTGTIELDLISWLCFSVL

[3] = biological target: T2, Ubiquitin-conjugating enzyme E2 N (Homo sapiens, UniProt P61088); format: functional;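 also: Dose-response confirmation in a TR-FRET assay detecting UBC13-driven polyubiquitin chain formation, inhibition measured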
T2 sequence (P61088 whole entry): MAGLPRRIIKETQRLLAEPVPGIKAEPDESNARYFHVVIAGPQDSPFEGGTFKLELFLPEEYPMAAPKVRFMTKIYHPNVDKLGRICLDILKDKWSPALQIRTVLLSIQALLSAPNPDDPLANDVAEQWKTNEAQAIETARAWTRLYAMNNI

[4] = biological target: T3, Apoptotic protease-activating factor 1 (Homo sapiens, UniProt O14727); format: functional
T3 sequence (O14727 whole entry): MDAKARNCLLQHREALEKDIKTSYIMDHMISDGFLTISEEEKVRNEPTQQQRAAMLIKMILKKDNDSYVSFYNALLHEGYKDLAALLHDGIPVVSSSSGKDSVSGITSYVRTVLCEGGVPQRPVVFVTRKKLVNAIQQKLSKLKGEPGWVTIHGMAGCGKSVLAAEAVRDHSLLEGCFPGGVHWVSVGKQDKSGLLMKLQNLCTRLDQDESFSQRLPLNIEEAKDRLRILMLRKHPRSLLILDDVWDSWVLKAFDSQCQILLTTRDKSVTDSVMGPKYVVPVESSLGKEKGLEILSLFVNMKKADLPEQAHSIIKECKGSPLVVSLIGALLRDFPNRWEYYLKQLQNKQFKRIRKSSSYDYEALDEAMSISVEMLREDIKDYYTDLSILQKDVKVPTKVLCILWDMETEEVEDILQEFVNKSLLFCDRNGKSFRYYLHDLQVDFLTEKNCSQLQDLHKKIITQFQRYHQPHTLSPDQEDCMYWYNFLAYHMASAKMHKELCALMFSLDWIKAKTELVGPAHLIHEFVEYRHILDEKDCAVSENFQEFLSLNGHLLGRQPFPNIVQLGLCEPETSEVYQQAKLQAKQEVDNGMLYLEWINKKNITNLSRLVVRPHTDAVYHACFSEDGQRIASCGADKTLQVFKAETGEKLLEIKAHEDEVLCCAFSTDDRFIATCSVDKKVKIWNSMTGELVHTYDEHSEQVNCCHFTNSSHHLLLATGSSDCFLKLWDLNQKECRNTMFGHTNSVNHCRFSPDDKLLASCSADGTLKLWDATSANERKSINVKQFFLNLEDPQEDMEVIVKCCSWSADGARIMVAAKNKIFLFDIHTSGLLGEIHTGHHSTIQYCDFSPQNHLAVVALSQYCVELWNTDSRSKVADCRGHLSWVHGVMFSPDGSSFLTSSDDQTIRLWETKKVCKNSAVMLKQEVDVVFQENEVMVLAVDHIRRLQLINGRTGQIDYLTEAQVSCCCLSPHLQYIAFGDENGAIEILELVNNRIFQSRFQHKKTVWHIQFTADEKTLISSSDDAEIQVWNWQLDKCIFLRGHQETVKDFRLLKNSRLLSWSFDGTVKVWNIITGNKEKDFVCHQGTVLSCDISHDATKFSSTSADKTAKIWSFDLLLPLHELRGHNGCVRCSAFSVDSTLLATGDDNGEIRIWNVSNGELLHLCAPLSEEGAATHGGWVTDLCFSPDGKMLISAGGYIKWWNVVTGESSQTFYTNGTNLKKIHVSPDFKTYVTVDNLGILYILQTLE

[5] = biological target: T4, Polyadenylate-binding protein 1 (Homo sapiens, UniProt P11940); test: PABP1 MLLE–PAM2 binding inhibitor potency, dose response, biochemical, fluorescence polarization, FITC-PAM2 peptide (AID 602259); format: functional; conditions: read-out: IC50_Mean
T4 sequence (P11940 whole entry): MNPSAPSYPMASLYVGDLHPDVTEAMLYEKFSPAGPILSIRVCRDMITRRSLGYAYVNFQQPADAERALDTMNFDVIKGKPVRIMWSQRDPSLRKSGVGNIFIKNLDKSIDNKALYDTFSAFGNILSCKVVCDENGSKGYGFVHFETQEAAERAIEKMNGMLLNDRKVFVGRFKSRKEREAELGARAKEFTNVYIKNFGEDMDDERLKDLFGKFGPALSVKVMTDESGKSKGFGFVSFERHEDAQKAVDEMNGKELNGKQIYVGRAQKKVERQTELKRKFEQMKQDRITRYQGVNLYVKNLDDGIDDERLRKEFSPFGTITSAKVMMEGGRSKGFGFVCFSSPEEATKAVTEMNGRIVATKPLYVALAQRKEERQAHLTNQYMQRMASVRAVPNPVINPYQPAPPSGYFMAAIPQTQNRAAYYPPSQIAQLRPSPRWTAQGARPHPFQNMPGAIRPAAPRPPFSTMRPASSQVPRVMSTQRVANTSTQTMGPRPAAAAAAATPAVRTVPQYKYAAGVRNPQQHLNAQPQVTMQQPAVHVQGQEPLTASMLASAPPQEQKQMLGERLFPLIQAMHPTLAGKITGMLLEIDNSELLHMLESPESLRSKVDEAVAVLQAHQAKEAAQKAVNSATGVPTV

[6] = biological target: T4, Polyadenylate-binding protein 1; test: PABP1 MLLE–PAM2 interaction inhibitors, dose response, miRNA deadenylation inhibitor project, biochemical, fluorescence polarization, Cy5-PAM2 peptide, secondary (AID 602260); format: functional; conditions: read-out: IC50_Mean
[7] = inhibitors of clade B AD8 Env fusion, dose response, cell-based, cherry-pick (AID 652062); format: functional;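 also: luciferase signal from cell-cell fusion driven by HIV-1 clade B AD8 Env; potency is for inhibitors of fusion seen as a drop in luminescence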
[8] = off-target signal loss in HeLa-CEM21 co-culture – HeLa F-luc CTL cells, cherry-picked, counter-screen for HIV-1 Env fusion inhibitor project, dose response (AID 652040); format: functional, cell-based;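 also: potency for signal decrease marking cytotoxic or nonspecific inhibition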
[9] = inhibitors of HIV Env-driven cell fusion, dose response, cherry-pick (AID 652057); format: functional, cell-based
[10] = ZM109 Env clade C HIV-1 fusion inhibitors, dose response, HeLa effector, CEM target cells, luciferase, cherry-pick (AID 652058); format: functional, cell-based
[11] = Luminescence Cell-Based Dose Retest to Confirm Inhibitors of Cancer Stem Cells. [Related pubchem assays (depositor defined):AID2717, AID2721]; format: functional; conditions: Homo sapiens
Streptococcus = test: Group A Streptococcus viability loss, dose response, counter-screen for streptokinase expression inhibitor project, luminescence, BacTiterGlo (AID 1915); format: functional, organism-based;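 also: potency for reduction of bacterial viability or growth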
[12] = inhibitors of intracellular T. cruzi replication, confirmation, NIH3T3 host cells, beta-gal luminescence (AID 2044); format: functional, cell-based;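 also: intracellular parasites grown in NIH/3T3 mouse fibroblasts as host cells; luminescent beta-galactosidase reporter signal from transgenic T. cruzi replicating inside host cells; inhibitors lower the luminescence signal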
Streptokinase A = biological target: T5, Streptokinase A (Streptococcus pyogenes serotype M1, UniProt P10520); test: S. pyogenes streptokinase expression inhibitors, potency, dose response, plasminogen activation absorbance, OD405 (AID 1914); format: functional, Streptococcus pyogenes M1 GAS;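 also: secreted streptokinase activity via plasminogen activation per viability signal from cell pellet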
T5 sequence (P10520 whole entry): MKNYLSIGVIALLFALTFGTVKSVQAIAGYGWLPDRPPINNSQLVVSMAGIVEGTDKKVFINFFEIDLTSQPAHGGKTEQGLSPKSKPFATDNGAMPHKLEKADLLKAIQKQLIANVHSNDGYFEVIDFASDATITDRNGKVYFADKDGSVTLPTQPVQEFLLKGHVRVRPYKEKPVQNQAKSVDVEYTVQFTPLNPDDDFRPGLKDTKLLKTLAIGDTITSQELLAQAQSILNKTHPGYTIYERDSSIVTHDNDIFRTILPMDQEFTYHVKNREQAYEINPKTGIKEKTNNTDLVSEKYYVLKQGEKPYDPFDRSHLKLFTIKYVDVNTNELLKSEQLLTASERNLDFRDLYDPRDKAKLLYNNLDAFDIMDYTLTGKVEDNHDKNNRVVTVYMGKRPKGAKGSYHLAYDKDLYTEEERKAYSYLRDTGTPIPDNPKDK

[13] = cytotoxicity toward NIH3T3 fibroblasts, dose response, counter-screen, cell-based, ATP luminescence, mouse fibroblasts (AID 2010); format: functional;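 also: cells exposed to compound for about 90 hours before reading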
[14] = biological target: T6, Oxysterols receptor LXR-beta (Homo sapiens, UniProt P55055); format: functional, cell-based;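 also: agonist activity at LXR measured by a cell-based luminescence readout across a dose range, run as a counterscreen for daf-12 agonists; HEK293 cells with Gal4-LXR fusion and GAL4-driven luciferase reporter; potency for activation of Gal4-LXR reporter so compounds are agonists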
T6 sequence (P55055 whole entry): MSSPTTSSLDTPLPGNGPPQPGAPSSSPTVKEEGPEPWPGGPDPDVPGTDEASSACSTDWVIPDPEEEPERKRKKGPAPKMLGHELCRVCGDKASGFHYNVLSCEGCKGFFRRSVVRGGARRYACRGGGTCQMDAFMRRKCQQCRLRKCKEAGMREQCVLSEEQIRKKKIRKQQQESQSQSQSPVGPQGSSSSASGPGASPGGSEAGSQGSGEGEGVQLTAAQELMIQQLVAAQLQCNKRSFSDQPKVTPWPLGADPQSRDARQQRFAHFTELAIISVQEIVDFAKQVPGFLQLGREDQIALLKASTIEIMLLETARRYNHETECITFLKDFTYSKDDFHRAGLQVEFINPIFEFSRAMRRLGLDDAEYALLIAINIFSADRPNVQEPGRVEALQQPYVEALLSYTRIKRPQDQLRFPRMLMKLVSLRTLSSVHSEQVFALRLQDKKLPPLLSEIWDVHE

[15] = test system: Streptococcus sp. 'group A'; test: growth inhibition of control SK(-) GAS strain, dose response, counter-screen for streptokinase expression inhibitor project, luminescence, kanamycin, BacTiterGlo, confirmation (AID 1900); format: functional, organism-based
Fatty acid synthase [16] = biological target: T7, Fatty acid synthase (Homo sapiens, UniProt P49327); test: FAS thioesterase domain inhibitors, dose response, biochemical, endpoint fluorescence intensity, uHTS hits (AID 624327); format: functional;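 also: fluorescence from hydrolysis of an O-methyl fluorescein acyl ester substrate by the enzyme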
T7 sequence (P49327 whole entry, the tested form may be a part): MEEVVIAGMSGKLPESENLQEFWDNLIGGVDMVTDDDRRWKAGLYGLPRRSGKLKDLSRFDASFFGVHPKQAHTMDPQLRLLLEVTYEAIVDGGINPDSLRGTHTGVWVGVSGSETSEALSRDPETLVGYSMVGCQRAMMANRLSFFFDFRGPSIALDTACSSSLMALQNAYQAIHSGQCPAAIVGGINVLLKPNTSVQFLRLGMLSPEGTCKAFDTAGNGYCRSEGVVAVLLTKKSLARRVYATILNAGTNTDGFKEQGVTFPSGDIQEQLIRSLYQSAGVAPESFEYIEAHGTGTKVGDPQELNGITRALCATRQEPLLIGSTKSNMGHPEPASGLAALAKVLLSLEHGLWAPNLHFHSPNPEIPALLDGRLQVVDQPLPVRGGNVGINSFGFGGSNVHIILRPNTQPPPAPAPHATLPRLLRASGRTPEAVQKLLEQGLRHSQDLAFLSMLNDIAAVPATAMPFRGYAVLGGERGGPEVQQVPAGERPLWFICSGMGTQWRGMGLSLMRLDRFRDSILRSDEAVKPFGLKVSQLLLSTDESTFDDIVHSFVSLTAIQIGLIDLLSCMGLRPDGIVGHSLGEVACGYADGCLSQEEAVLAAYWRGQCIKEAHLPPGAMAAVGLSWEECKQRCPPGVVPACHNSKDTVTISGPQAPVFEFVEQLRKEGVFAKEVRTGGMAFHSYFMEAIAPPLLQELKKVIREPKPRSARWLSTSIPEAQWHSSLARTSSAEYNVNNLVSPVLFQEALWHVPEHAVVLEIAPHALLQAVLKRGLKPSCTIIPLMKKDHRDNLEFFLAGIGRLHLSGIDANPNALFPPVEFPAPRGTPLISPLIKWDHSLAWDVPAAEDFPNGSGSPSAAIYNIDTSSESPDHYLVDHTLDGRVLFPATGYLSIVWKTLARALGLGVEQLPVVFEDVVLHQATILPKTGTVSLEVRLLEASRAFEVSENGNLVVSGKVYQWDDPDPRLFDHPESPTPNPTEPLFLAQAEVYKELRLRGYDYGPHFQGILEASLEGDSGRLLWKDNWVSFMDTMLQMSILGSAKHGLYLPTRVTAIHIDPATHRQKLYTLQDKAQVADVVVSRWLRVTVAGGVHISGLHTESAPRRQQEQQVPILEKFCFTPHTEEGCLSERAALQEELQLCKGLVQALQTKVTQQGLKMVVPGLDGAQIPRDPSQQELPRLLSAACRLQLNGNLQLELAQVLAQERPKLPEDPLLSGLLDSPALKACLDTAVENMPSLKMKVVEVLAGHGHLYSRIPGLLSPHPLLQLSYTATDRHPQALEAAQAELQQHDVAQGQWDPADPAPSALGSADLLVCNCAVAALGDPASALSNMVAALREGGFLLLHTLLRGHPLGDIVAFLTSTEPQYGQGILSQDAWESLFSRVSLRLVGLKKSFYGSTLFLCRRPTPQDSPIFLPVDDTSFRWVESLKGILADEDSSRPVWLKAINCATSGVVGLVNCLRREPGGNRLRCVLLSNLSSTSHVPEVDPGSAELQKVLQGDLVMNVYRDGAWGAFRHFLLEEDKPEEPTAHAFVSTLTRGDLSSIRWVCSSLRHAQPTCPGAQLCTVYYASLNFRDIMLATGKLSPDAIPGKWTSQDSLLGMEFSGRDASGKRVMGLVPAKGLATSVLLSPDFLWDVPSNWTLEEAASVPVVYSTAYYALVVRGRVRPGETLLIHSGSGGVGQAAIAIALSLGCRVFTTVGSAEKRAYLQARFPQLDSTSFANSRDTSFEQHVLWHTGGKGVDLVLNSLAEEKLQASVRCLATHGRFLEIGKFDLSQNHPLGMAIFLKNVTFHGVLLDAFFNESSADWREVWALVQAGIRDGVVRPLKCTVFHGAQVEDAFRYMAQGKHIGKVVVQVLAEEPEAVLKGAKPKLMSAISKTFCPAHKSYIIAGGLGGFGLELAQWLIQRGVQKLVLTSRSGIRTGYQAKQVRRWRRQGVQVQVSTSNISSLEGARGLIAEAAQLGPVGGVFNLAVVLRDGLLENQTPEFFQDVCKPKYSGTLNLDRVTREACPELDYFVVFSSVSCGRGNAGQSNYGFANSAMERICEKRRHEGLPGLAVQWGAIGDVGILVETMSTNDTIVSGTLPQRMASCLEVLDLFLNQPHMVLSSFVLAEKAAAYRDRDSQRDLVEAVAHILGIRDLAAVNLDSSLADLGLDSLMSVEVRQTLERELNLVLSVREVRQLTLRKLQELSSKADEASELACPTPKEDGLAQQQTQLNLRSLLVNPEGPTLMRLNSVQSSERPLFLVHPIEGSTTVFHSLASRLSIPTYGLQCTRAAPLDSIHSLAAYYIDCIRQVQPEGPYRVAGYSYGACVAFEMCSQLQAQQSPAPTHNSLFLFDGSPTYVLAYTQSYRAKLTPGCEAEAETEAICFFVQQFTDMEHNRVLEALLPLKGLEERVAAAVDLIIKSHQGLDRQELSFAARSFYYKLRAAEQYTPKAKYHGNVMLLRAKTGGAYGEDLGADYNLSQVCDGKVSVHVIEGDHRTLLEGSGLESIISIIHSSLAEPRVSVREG

Fatty acid synthase [17] = biological target: T7, Fatty acid synthase; test: FAS thioesterase domain inhibitors, dose response, biochemical, kinetic fluorescence intensity (AID 624326); format: functional;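 also: rate of fluorescence rise from hydrolysis of a fluorogenic O-methyl fluorescein ester substrate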
H4 = test: Luminescence Cell-Based Dose Response HTS to Identify Activators of 5'UTR Stem-Loop Driven Prion Protein mRNA Translation in H4 Neuroglioblastoma Cells. [Related pubchem assays: 1829 (Project Summary), 1814 (Primary HTS)]; format: functional; conditions: Homo sapiens
[18] = biological target: Induced myeloid leukemia cell differentiation protein Mcl-1 (Homo sapiens, UniProt Q07820); format: functional
Sequence of Induced myeloid leukemia cell differentiation protein Mcl-1 (Q07820 whole entry): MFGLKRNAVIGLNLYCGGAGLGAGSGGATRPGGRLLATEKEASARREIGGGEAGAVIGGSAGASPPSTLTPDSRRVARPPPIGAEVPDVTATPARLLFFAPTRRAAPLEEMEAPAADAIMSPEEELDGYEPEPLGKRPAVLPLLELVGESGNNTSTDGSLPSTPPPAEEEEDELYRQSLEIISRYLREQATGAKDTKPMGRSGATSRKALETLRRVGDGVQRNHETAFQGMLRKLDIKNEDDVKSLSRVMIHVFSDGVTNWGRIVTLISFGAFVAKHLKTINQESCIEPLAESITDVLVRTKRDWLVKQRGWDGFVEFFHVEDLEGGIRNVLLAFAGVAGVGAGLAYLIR

Sequence of FAD-linked sulfhydryl oxidase ALR (P55789 whole entry): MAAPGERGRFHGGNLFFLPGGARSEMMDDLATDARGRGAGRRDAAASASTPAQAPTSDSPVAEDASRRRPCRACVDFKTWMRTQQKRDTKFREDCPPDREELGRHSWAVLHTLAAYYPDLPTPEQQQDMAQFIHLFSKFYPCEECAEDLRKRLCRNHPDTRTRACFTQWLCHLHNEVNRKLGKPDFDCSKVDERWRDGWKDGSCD

Nc1c(C(=O)Nc2ccc(Br)cc2)sc2nc(N3CCOCC3)c3c(c12)CCCC3
CC50 (Vero): > 25 µM (active)

C1=C(c2ccco2)N2CCN=C2S1
AC50 [1]: 2.33 µM (active)

COc1cccc(NC(=O)NNC(=O)CCc2ccc(O)c(O)c2)c1
AC50 [1]: 3.12 µM (active)

Cc1cc(NC(=S)N(Cc2ccc(Br)cc2)Cc2ccc(C(=O)O)cc2)ccc1Cl
IC50 [2]: 4.69 µM (not active)

COc1ccc(C[C@H]2CN3C(=NC[C@H]3Cc3ccccc3)N2CCNC(=O)c2ccc(C)c(Br)c2)cc1
IC50 [3]: > 20 µM (inactive)
IC50 [4]: > 100 µM (inactive)

O=C(O)CCc1ccc(-c2ccccc2)n1NC(=O)c1sc2ccccc2c1Cl
AC50 [1]: 1.72 µM (active)

COc1cc2c(c(OCC(=O)NC(C)C)c1)C(=O)O[C@@H](C)CCCC(=O)CCCCC2
IC50 [5]: 63.7 µM (inactive)
IC50 [6]: > 66 µM (inactive)
AC50 [7]: 11.3 µM (active)
AC50 [8]: 5.78 µM (active)
AC50 [9]: 4.35 µM (active)
AC50 [10]: 4.75 µM (active)

O=C(O)c1ccc(C=C(c2nc3ccccc3s2)c2nc3ccccc3s2)cc1
CC50 (Vero): > 25 µM (active)
AC50 [11]: 4.53 µM (active)

Cc1cc(C)nc(-n2nc(C)c(Sc3ccc(F)cc3)c2N)n1
EC50 (Streptococcus): > 150 µM (not active)
EC50 [12]: 2.01 µM (active)
EC50 (Streptokinase A): > 150 µM (not active)
EC50 [13]: > 60 µM (not active)
EC50 [14]: > 67.5 µM (inactive)
EC50 [15]: > 150 µM (not active)

Cc1cc(C(=O)NC2=NCCS2)cs1
EC50 [14]: > 67.5 µM (inactive)

CCN(CC(=O)Nc1ccccc1OC)C(=O)c1ccccc1Sc1ccccc1C#N
IC50 [4]: > 100 µM (inactive)

Cn1c(-c2ccc(F)cc2)cnc1NCc1cccc([N+](=O)[O-])c1
IC50 (Fatty acid synthase [16]): 5.28 µM (active)
IC50 (Fatty acid synthase [17]): 9.83 µM (active)

Cc1cc(C(=O)NC2CCCCC2)c(C)n1-c1ccc(F)cc1
EC50 (H4): 0.455 µM (active)
EC50 [14]: > 67.5 µM (inactive)

CCN(CC(O)Cn1c2ccccc2c2ccccc21)S(=O)(=O)c1ccc(C)cc1 (stereo not given)
IC50 [2]: 2.61 µM (not active)

CCc1nnc(NS(=O)(=O)c2ccc(NC(=S)NC(=O)c3ccc(Br)cc3)cc2)s1
IC50 [2]: 6.7 µM (active)

Fc1ccccc1COc1ccc(Br)cc1CNCc1ccncc1
IC50 [2]: > 50 µM (not active)

Cc1cc(C)n2c(NC3CCCC3)c(-c3cc4ccccc4o3)nc2n1
EC50 [14]: > 67.5 µM (inactive)

O=C(Nc1ccc2[nH]c(-c3ccc4[nH]cnc4c3)nc2c1)c1cccs1
EC50 (Streptococcus): 48.4 µM (inconclusive)
EC50 (Streptokinase A): > 150 µM (not active)
IC50 [18]: 7.21 µM (active)
EC50 [15]: > 150 µM (not active)

Cc1cc(C(=O)OCC(=O)Nc2cccc([N+](=O)[O-])c2)c(C)o1
IC50 (Fatty acid synthase [16]): 9.82 µM (active)
IC50 (Fatty acid synthase [17]): 17.2 µM (active)

CS(=O)(=O)c1ccc(-c2csc(-c3cccnc3)n2)cc1
IC50 (Fatty acid synthase [16]): 10.3 µM (active)
IC50 (Fatty acid synthase [17]): 7.66 µM (active)

COCCN(C(=O)CSc1ccc2c(c1)OCCO2)c1c(N)n(CC(C)C)c(=O)[nH]c1=O
IC50 [5]: > 66 µM (inactive)
IC50 [6]: > 66 µM (inactive)

Nc1nc(-c2cccc(F)c2)cs1
IC50 [5]: > 66 µM (inactive)
IC50 [6]: > 66 µM (inactive)

Cc1cc(-c2ccncc2)n2ncc(-c3ccccc3)c2n1
EC50 [14]: > 67.6 µM (inactive)

CN(c1ccccc1)S(=O)(=O)c1cccc(C(=O)NC2CCCCC2)c1
IC50 [5]: > 66 µM (inactive)
IC50 [6]: > 66 µM (inactive)

COc1ccc(C2CC(c3cccc(F)c3)=NN2c2ccc(S(N)(=O)=O)cc2)cc1 (stereo not given)
CC50 (Vero): > 25 µM (active)

CN(C)S(=O)(=O)c1ccc2oc(SCC(=O)Nc3ccccc3F)nc2c1
IC50 [4]: 7.98 µM (active)

CCOC(=O)N1CCC(NC(=O)c2cc3ccccn3n2)CC1
EC50 [14]: > 67.5 µM (inactive)

CCOc1ccc(NC(=S)NC(=O)c2cccnc2)c([N+](=O)[O-])c1
IC50 [5]: > 66 µM (inactive)
IC50 [6]: > 66 µM (inactive)

COc1ccc2[nH]c(C(=O)Nc3cccc(C)n3)cc2c1
EC50 [14]: > 67.5 µM (inactive)

COC(=O)Cc1ccc(O)c(N)c1
AC50 [1]: 21.6 µM (active)

CN(C1CCCCC1)S(=O)(=O)c1ccc(NC(=S)NC(=O)c2cccs2)cc1
IC50 [5]: > 66 µM (inactive)
IC50 [6]: > 66 µM (inactive)

Reference: ChEMBL document CHEMBL1201862, “PubChem BioAssay data set” (2004)
